Measurements reported in a compilation of properties of binary mixtures (doi:10.1016/j.molliq.2018.12.032).

Experiment: xn = mol fraction of the nth substance listed
Settings: 101 kPa

C[P+](c1ccccc1)(c1ccccc1)c1ccccc1.[Br-] + OCCO
x1 = 0.25
Settings | electrical conductivity [S/m] | viscosity [mPa·s]
293.15 K | 0.119 | 211
303.15 K | 0.153 | 136
313.15 K | 0.192 | 89.5
323.15 K | 0.238 | 60.6
333.15 K | 0.291 | 42
343.15 K | 0.352 | 29.7
353.15 K | 0.422 | 21.5

[Cl-].c1ccc(C[P+](c2ccccc2)(c2ccccc2)c2ccccc2)cc1 + OCCO
x1 = 0.083
Settings | electrical conductivity [S/m] | viscosity [mPa·s]
303.15 K | 0.241 | 43.7
323.15 K | 0.365 | 24.2
333.15 K | 0.441 | 18.4
343.15 K | 0.527 | 14.3
353.15 K | 0.623 | 11.3

C[P+](c1ccccc1)(c1ccccc1)c1ccccc1.[Br-] + OCCOCCO
x2 = 0.8
Settings | electrical conductivity [S/m] | viscosity [mPa·s]
293.15 K | 0.0618 | 141
303.15 K | 0.0986 | 103
313.15 K | 0.132 | 60.6
323.15 K | 0.18 | 38.7
333.15 K | 0.258 | 27
343.15 K | 0.294 | 20.4
353.15 K | 0.337 | 18.3

[Cl-].c1ccc(C[P+](c2ccccc2)(c2ccccc2)c2ccccc2)cc1 + OCCOCCO
x2 = 0.875
Settings | electrical conductivity [S/m] | viscosity [mPa·s]
293.15 K | 0.0466 | –
303.15 K | 0.0706 | 102
323.15 K | 0.116 | 42.3
333.15 K | 0.147 | 30
343.15 K | 0.158 | 22.8
